Data from patent US7629375B2, “Cytoprotective compounds, pharmaceutical and cosmetic formulations, and methods” (Johnson & Johnson Consumer Companies, Inc., priority 2001, dated 2009).

Test system: neonatal cardiomyocytes
Experiment: Myocyte calcium-contractility assay
Type: cell-based, rat
Conditions: anaerobic chamber 16 hours in DMEM 1 mM glucose, reoxygenation two hours
Procedure: A. Isolation and Culture of Primary Neonate Myocytes.
The following materials are employed: • 10× Heart Dissection Solution (HDS) contains the following components (g/l) in tissue grade water: NaCl, 68; HEPES, 47.6; NaH2PO4, 2; Glucose, 10; KCl, 4; MgSO4, 1, pH adjusted to 7.4. Prior to filter sterilization of diluted (1×HDS) solution, 10 mg phenol red is added to each 500 milliliters of medium. • Transferrin and Bovine Insulin (available from Life Technologies) are resuspended at a concentration of 4 mg/ml in tissue culture grade water. • DMEM-F12—DMEM/F12, powder, 1:1 containing glutamine and pyridoxine hydrochloride (available from Life Technologies). To one liter equivalent of the powder is added 2.43 g of sodium bicarbonate and 10 ml of 100× Penicillin/Streptomycin in 950 ml of tissue culture grade water with stirring. The pH is adjusted to 7.2 with 1M HCl and volume adjusted to 1 liter. The solution is filter sterilized, followed by the addition of 2.5 ml of 4 mg/ml Transferrin, 250 μl 4 mg/ml Insulin and 30.7 mg of bromodeoxyuridine. • DMEM-F12-5% FBS is also prepared for pre-coating the tissue culture plates and initial suspension of the cardiomyocyte pellet. • Collagenase solution-57.1 mg of collagenase is resuspended in 140 ml 1×HDS.
Tissue culture ware is pre-coated with DMEM-F12-5% FBS by incubating […] per well of a 96-well plate and 0.5 ml per 24-well plate at 37° C.
Two-day old rat pups are removed from their mothers and placed in a sterile container. Pups are dipped quickly into 70% alcohol, then decapitated and the body placed in an empty sterile tissue culture dish. An incision is made starting at the neck and progressing towards the belly, cutting through the sternum. The heart is removed and placed in a tissue culture dishes containing 1×HDS. The atria are trimmed, and the remaining ventricles are placed into a separate tissue culture dish containing 1×HDS, where they are sectioned into 3-4 pieces each. Ventricles are then transferred to a sterile 250 ml glass flask and the 1×HDS is removed. Twenty milliliters of pre-warmed collagenase solution is added to the ventricles, followed by incubation at 37° C. with shaking. After 20 minutes, the collagenase solution is removed and replaced with 20 ml fresh pre-warmed collagenase. Incubation is continued for an additional 20 minutes. At the end of the incubation, any tissue chunks are allowed to settle prior to removing the collagenase (containing the isolated cardiomyocytes) from the disrupted tissue pieces. The isolated myocytes are added to a 50 ml Falcon tube containing 2 ml Fetal Bovine Serum (FBS). The remaining tissue pieces are subjected to a second digestion by adding 20 ml fresh pre-warmed collagenase and incubating as above for 20 minutes. This second digest is then centrifuged at 1000 rpm for 5 minutes (tabletop centrifuge). The resulting supernatant is discarded, and the cell pellet is suspended with 4 ml FBS. The resulting cell suspension is placed in the incubator at 37° C. This step is repeated several additional times to harvest additional material.
Percoll gradients are prepared by adding 2.5 ml of 10×HDS to 22.5 ml of Percoll (Life Technologies) with mixing (Percoll Stock). Top Gradient solution (11 ml Percoll Stock and 14 ml 1×HDS) and Bottom Gradient solution (13 ml Percoll Stock and 7 ml 1×HDS) are prepared. Four milliliters of the Top Gradient solution is transferred into 6×15 ml sterile Falcon tubes. Three milliliters of the Bottom Gradient solution is placed in each tube by inserting a serological pipette to the bottom of the tube and slowly adding the liquid.
All the digests (6) are pooled in one 50 ml Falcon tube and centrifuged on a tabletop centrifuge at 1000 rpm for 10 minutes. The supernatant is discarded, and the cell pellet is resuspended in 12 ml of 1×HDS. Two milliliters of the cell suspension is added to the top of each gradient. […]

| SMILES | calcium transients (Fluo-4) in amounts indicative of ability guard against ischemic damage and maintain contractile function |
| --- | --- |
| COCOc1cc(C=Cc2ccc([N+](=O)[O-])cc2)cc(CC=C(C)C)c1OCOC [1,2-bis-methoxymethoxy-3-(3-methyl-but-2-enyl)-5-[2-(4-nitro-phenyl)-vinyl]-benzene] | presence of calcium transients |
| COCOc1cc(C=Cc2ccc([N+](=O)[O-])cc2)cc(OCOC)c1CC=C(C)C [1,3-bis-methoxymethoxy-2-(3-methyl-but-2-enyl)-5-[2-(4-nitro-phenyl)-vinyl]-benzene] | presence of calcium transients |
| COCOc1cc(C=Cc2ccc([N+](=O)[O-])cc2)cc(OCOC)c1 [1,3-bis-methoxymethoxy-5-[2-(4-nitro-phenyl)-vinyl]-benzene] | presence of calcium transients |
| COCOc1cc(C=Cc2ccc([N+](=O)[O-])cc2)c(CC=C(C)C)c(OCOC)c1 [1,5-bis-methoxymethoxy-2-(3-methyl-but-2-enyl)-3-[2-(4-nitro-phenyl)-vinyl]-benzene] | presence of calcium transients |
| O=C(O)C(=O)C[n+]1ccc(C=Cc2ccc(O)c(O)c2)cc1.[Br-] [1-(2-Carboxy-2-oxo-ethyl)-4-[2-(3,4-dihydroxy-phenyl)-vinyl]-pyridinium; bromide] | presence of calcium transients |
| COCOc1c(C/C=C(\C)CCC=C(C)C)cc(C=Cc2ccc([N+](=O)[O-])cc2)cc1OC [1-(3,7-dimethyl-octa-2,6-dienyl)-3-methoxy-2-methoxymethoxy-5-[2-(4-nitro-phenyl)-vinyl]-benzene] | presence of calcium transients |
| COCOc1c(Br)cc(C=Cc2ccc([N+](=O)[O-])cc2)cc1OC [1-bromo-3-methoxy-2-methoxymethoxy-5-[2-(4-nitro-phenyl)-vinyl]-benzene] | presence of calcium transients |
| O=C(O)C[n+]1ccc(C=Cc2ccc(O)c(O)c2)cc1.[Br-] [1-carboxymethyl-4-[2-(3,4-dihydroxy-phenyl)-vinyl]-pyridinium; bromide] | presence of calcium transients |
| COCOc1c(CC=C(C)C)cc(C=Cc2ccc([N+](=O)[O-])cc2)cc1OC [1-methoxy-2-methoxymethoxy-3-(3-methyl-but-2-enyl)-5-[2-(4-nitro-phenyl)-vinyl]-benzene] | presence of calcium transients |
| Cc1cc(C=Cc2ccc([N+](=O)[O-])cc2)cc(C)c1O [2,6-dimethyl-4-[2-(4-nitro-phenyl)-vinyl]-phenol] | presence of calcium transients |
| COCOc1cc(C=Cc2ccc([N+](=O)[O-])cc2)cc(OCOC)c1CC=C(C)CCC=C(C)C [2-(3,7-dimethyl-octa-2,6-dienyl)-1,3-bis-methoxymethoxy-5-[2-(4-nitro-phenyl)-vinyl]-benzene] | presence of calcium transients |
| COCOc1ccc(C=Cc2nccs2)cc1OCOC [2-[2-(3,4-bis-methoxymethoxy-phenyl)-vinyl]-thiazole] | presence of calcium transients |
| O=C1c2ccccc2C(=O)c2cc(C=Cc3ccc(O)c(O)c3)ccc21 [2-[2-(3,4-dihydroxy-phenyl)-vinyl]-anthraquinone] | presence of calcium transients |
| COc1cc(C=Cc2ccc([N+](=O)[O-])cc2)cc(Br)c1O [2-bromo-6-methoxy-4-[2-(4-nitro-phenyl)-vinyl]-phenol] | presence of calcium transients |
| COCOc1ccc(C=CC=Cc2ccc([N+](=O)[O-])cc2)cc1OC [2-methoxy-1-methoxymethoxy-4-[4-(4-nitro-phenyl)-buta-1,3-dienyl]-benzene] | presence of calcium transients |
| COc1cc(C=CC=Cc2ccc([N+](=O)[O-])cc2)ccc1O [2-methoxy-4-[4-(4-nitro-phenyl)-buta-1,3-dienyl]-phenol] | presence of calcium transients |
| COCOc1ccc(C=C2C(=O)Oc3ccccc32)cc1OCOC [3-(3,4-bis-methoxymethoxy-benzylidene)-3H-benzofuran-2-one] | presence of calcium transients |
| CC(C)(C)c1cc(C=C2C(=O)Oc3ccc(O)cc32)cc(C(C)(C)C)c1O [3-(3,5-di-tert-butyl-4-hydroxy-benzylidene)-5-hydroxy-3H-benzofuran-2-one] | presence of calcium transients |
| O=[N+]([O-])C=Cc1ccc(O)c(O)c1 [4-(2-nitro-vinyl)-benzene-1,2-diol] | presence of calcium transients |
| CC1=NN(c2ccccc2)C(=O)C1=Cc1ccc(O)c(O)c1 [4-(3,4-dihydroxy-benzylidene)-5-methyl-2-phenyl-2,4-dihydro-pyrazol-3-one] | presence of calcium transients |
| COC(=O)c1ccc(C=Cc2ccc3[nH]cnc3c2)cc1 [4-[2-(1H-benzoimidazol-5-yl)-vinyl]-benzoic acid methyl ester] | presence of calcium transients |
| COCOc1ccc(C=Cc2ccnc(-c3cc(C)ccn3)c2)cc1OCOC [4-[2-(3,4-bis-methoxymethoxy-phenyl)-vinyl]-4′-methyl-[2,2′]bipyridinyl] | presence of calcium transients |
| COCOc1ccc(/C=C/c2ccc(C(=O)N(CCO)CCO)cc2)cc1OCOC [4-[2-(3,4-bis-methoxymethoxy-phenyl)-vinyl]-N,N-bis-(2-hydroxy-ethyl)-benzamide] | presence of calcium transients |
| COCOc1ccc(C=Cc2ccc(C(=O)OC)c(C(=O)OC)c2)cc1OCOC [4-[2-(3,4-bis-methoxymethoxy-phenyl)-vinyl]-phthalic acid dimethyl ester] | presence of calcium transients |
| O=C(c1ccc(C=Cc2ccc(O)c(O)c2)cc1)N(CCO)CCO [4-[2-(3,4-dihydroxy-phenyl)-vinyl]-N,N-bis-(2-hydroxy-ethyl)-benzamide] | presence of calcium transients |
| O=C(O)c1ccc(C=Cc2ccc(O)c(O)c2)cc1 [4-[2-(3,4-dihydroxy-phenyl)-vinyl]-benzoic acid] | presence of calcium transients |
| COC(=O)c1ccc(C=Cc2cc(C)c(O)c(C)c2)cc1 [4-[2-(4-hydroxy-3,5-dimethyl-phenyl)-vinyl]-benzoic acid methyl ester] | presence of calcium transients |
| COC(=O)c1ccc(C=Cc2cc(I)c(O)c(OC)c2)cc1 [4-[2-(4-hydroxy-3-iodo-5-methoxy-phenyl)-vinyl]-benzoic acid methyl ester] | presence of calcium transients |
